“Also recorded” adds a separate entry of the source.
tested on: Alu cDNA; assay: Alu cDNA in RPE flat mounts of Casp1/4 dko mice after subretinal Alu RNA (in situ hybridization); type: in vivo, mouse; conditions: subretinal Alu RNA (or Alu G25C RNA), NNRTIs at high doses
Method: Subretinal and intravitreous injections. Subretinal injections (1 μl for mice, 3 μl for rat) or intravitreous injections (0.5 μl for mice, 2 μl for rat) in mice or rat were performed using a 35-gauge needle (Ito Co. Fuji, Japan). In vivo transfection of Alu RNA or mutant Alu RNA (3.6-300 ng per eye); Alu complementary DNA (cDNA; 0.0036-90 ng per eye); Alu reverse sequence cDNA (3.6-90 ng per eye); or 7SL cDNA (3.6-90 ng per eye) was performed using 10% NEUROPORTER™ transfection reagent (Genlantis, San Diego, Calif., United States of America) as previously described (Kaneko et al., 2011; Tarallo et al., 2012). 3TC, TM-3TC, Cpep-3TC, Cpep, PA-4 3TC, EFV, DLV, or NVP (50 μM/1 μl or 500 μM/1 μl) were administered by intravitreous injection (Mandal et al., 2011; Nasrolahi et al., 2013). 1 μl of cholesterol-conjugated siRNAs (2 μg/μl) targeting mouse LINE1 or Luc (luciferase control; Dharmacon, Lafayette, Colo., United States of America) were subretinally injected three days prior to Alu RNA or vehicle administration. Similarly, in Oryzomys palustris, rat L1 plasmids expressing ORF1p, ORF2p, reverse transcriptase-deficient ORF2p (pORF2 (RT-)), or endonuclease deficient ORF2p (pORF2 (EN-)) were delivered via subretinal injection three days prior to administering Alu RNA or vehicle. The choice of eye for experimental versus control injection was chosen randomly. Rat L1 plasmids expressing ORF1 and ORF2 have been described previously (Kirilyuk et al., 2008). The ORF2 (EN-) construct contained mutations D207A and H232A, which, by CLUSTALW alignment, correspond to human D205A and H230A (see Feng et al., 1996) in the endonuclease domain of ORF2p. The ORF2 (RT-) construct contained mutation D703A, which, by CLUSTALW alignment, corresponds to human D702A (see Moran et al., 1996) in the reverse transcriptase domain of ORF2p.
In situ hybridization. […] Visualization of fluorescein-labelled probe was performed with the TSA™ plus fluorescence system or the TSA™ plus Cy5 system (PerkinElmer). The fluorescent or Cy5 signals were detected using a Leica SP-5 or MR Nikon confocal microscope system.

Q: Which “Alu cDNA in RPE in vivo” value does the source give for `CC(C)Nc1cccnc1N1CCN(C(=O)c2cc3cc(NS(C)(=O)=O)ccc3[nH]2)CC1` [DLV, delavirdine] here?
A: prevented Alu cDNA formation in vivo; also recorded: blocked endogenous cDNA synthesis

Q: For `O=C1Nc2ccc(Cl)cc2[C@@](C#CC2CC2)(C(F)(F)F)O1` [EFV, efavirenz], which “Alu cDNA in RPE in vivo” value is on record?
A: prevented Alu cDNA formation in vivo; also recorded: blocked endogenous cDNA synthesis

Q: How did the “Alu cDNA in RPE in vivo” value turn out when `Cc1ccnc2c1NC(=O)c1cccnc1N2C1CC1` [NVP, nevirapine] was run?
A: did not prevent Alu cDNA synthesis

— US20210348164A1, “ENDOGENOUS CYTOPLASMIC ALU COMPLEMENTARY DNA IN AGE-RELATED MACULAR DEGENERATION” (University of Virginia Patent Foundation, priority 2018, published 2021)
